Source: patent US5830888A, “Macrocyclic retroviral protease inhibitors” (Monsanto Company, priority 1995, dated 1998)

The compounds below were run against T1, HIV protease (Human immunodeficiency virus type 1 group M subtype B, UniProt P04585) (assay: HIV protease enzyme assay (fluorescence, substrate 2-aminobenzoyl-lle-Nle-Phe(p-NO2)-Gin-ArgNH2)). Settings: 10 microM; HIV protease 12.3 nanomolar; substrate 80 μM; pH 6.4.
T1 construct: HIV protease is diluted in the assay buffer to a final enzyme concentration of 12.3 nanomolar, based on a molecular weight of 10,780
Assay type: biochemical
Method: The compounds of the present invention are effective HIV protease inhibitors. […] The calculated IC50 (inhibiting concentration 50%, i.e., the concentration at which the inhibitor compound reduces enzyme activity by 50%) values are shown in Table 1. The enzyme method is described below. The substrate is 2-aminobenzoyl-lle-Nle-Phe(p-NO2)-Gin-ArgNH2. The positive control is MVT-101 [Miller, M. et al, Science, 246, 1149 (1989)]. The assay conditions are as follows:
Assay buffer: 20 mM sodium phosphate, pH 6.4
The above described substrate is dissolved in DMSO, then diluted 10 fold in assay buffer. Final substrate concentration in the assay is 80 μM. HIV protease is diluted in the assay buffer to a final enzyme concentration of 12.3 nanomolar, based on a molecular weight of 10,780.
The final concentration of DMSO is 14% and the final concentration of glycerol is 18%. The test compound is dissolved in DMSO and diluted in DMSO to 10×the test concentration; 10 μL of the enzyme preparation is added, the materials mixed and then the mixture is incubated at ambient temperature for 15 minutes. The enzyme reaction is initiated by the addition of 40 μL of substrate. The increase in fluorescence is monitored at 4 time points (0, 8, 16 and 24 minutes) at ambient temperature. Each assay is carried out in duplicate wells.
`CC(C)CCN1C[C@@H](O)[C@H](Cc2ccccc2)NC(=O)CCSCCCCCNC1=O` [Compound 5] gave an inhibition at 10 µM of 20%.
With `CC(C)CCN1C[C@@H](O)[C@H](Cc2ccccc2)NC(=O)[C@@H](NC(=O)OCc2ccccc2)CSCCCCCCC1=O` [Compound 10] the inhibition at 10 µM was 47%.
In the case of `CC(C)CCN1C[C@@H](O)[C@H](Cc2ccccc2)NC(=O)CCS(=O)(=O)CCCCCNC1=O` [Compound 17, 1-Thia-5,9,11-Triazacyclohexadecane, 7-Hydroxy-9-(3-Methylbutyl)-4,10-Dioxo-6-(Phenylmethyl)-, 1,1-Dioxide, Cis-], the inhibition at 10 µM is reported as 21%.
For `CC(C)CCN1C[C@@H](O)[C@H](Cc2ccccc2)NC(=O)[C@@H](NC(=O)OCc2ccccc2)CC(=O)NCCCNC1=O` [Compound 20, Carbamic Acid, [5-Hydroxy-3-(3-Methylbutyl)-2,8,11-Trioxo-5-(Phenylmethyl)-1,3,7,12-Tetraazacyclopentadec-9-YL]-, Phenylmethylester, (98-Trans)-], the inhibition at 10 µM was 16%.

Same assay, conditions: HIV protease 12.3 nanomolar; substrate 80 μM; pH 6.4; ambient temperature; read-out: IC50 (inhibiting concentration 50%)
Work on `CC(C)CCN1C[C@@H](O)[C@H](Cc2ccccc2)NC(=O)[C@@H](NC(=O)OCc2ccccc2)CSCCCCNC1=O` [Compound 1] yielded an IC50 of 0.34 µM.
For `CC(C)CCN1C[C@@H](O)[C@H](Cc2ccccc2)NC(=O)[C@@H](NC(=O)OCc2ccccc2)CSCCCCCNC1=O` [Compound 2], the IC50 was 0.57 µM.
`CC(C)CCN1C[C@@H](O)[C@H](Cc2ccccc2)NC(=O)[C@@H](NC(=O)OCc2ccccc2)CSCCCCCCNC1=O` [Compound 3] gave an IC50 of 1.73 µM.
In the case of `CC(=O)N[C@H]1CSCCCCCNC(=O)N(CCC(C)C)C[C@@H](O)[C@H](Cc2ccccc2)NC1=O` [Compound 4], the IC50 is reported as 1.6 µM.
`CC(C)CCN1C[C@@H](O)[C@H](Cc2ccccc2)NC(=O)[C@@H](NC(=O)OCc2ccccc2)CSCCCCC(C)(C)NC1=O` [Compound 6] showed an IC50 of 0.22 µM.
`CC(C)CCN1C[C@@H](O)[C@H](Cc2ccccc2)NC(=O)[C@@H](NC(=O)OCc2ccccc2)C(C)(C)SCCCCCNC1=O` [Compound 7] showed an IC50 of 1.26 µM.
With `CC(C)CCN1C[C@@H](O)[C@H](Cc2ccccc2)NC(=O)[C@@H](NC(=O)OCc2ccccc2)CSCCCC(C)(C)NC1=O` [Compound 8] the IC50 was 0.14 µM.
`CC(C)CCN1C[C@@H](O)[C@H](Cc2ccccc2)NC(=O)[C@@H](NC(=O)c2ccc3ccccc3n2)CSCCCCCNC1=O` [Compound 9] showed an IC50 of 0.51 µM.
